According to PMC9706920, “Aryloxypropanolamine targets amyloid aggregates and reverses Alzheimer-like phenotypes in Alzheimer mouse models” (Alzheimer's Research & Therapy, 2022):

Columns and labels:
[1] = Microsomal stability, mouse; format: in vitro ADME; conditions: 1 μM, 30 min, 37°C
Procedure: To evaluate the rate of drug metabolism, we tested YIAD002 stability in liver microsomes of human, rat, and mouse. Microsomal concentration was 0.5 mg/ml in 0.1 M phosphate buffer (pH 7.4). 1 μM of YIAD002 was added to microsome solutions and was prewarmed at 37°C for 5 min. NADPH-regenerating solution was added to microsomes and incubated at 37°C for 30 min. At the end of incubation, acetonitrile with chlorpropamide was added to stop reactions and microsomal solutions were centrifuged at 14,000 rpm at 4°C for 5 min. For LC-MS/MS analysis, supernatants were injected on a Kinetex C18 column (2.1 × 100 mm, 2.6 μm particle size, Phenomenex, USA). The composition of the mobile phase was 0.1% formic acid in water (A) and 0.1% formic acid in acetonitrile (B).

[2] = test system: APP/PS1 mice; test: Morris water maze in APP/PS1 mice; format: in vivo, mouse; conditions: 30 mg/kg/day oral, 10 weeks, vs vehicle
Procedure: To test whether YIAD002 could reduce amyloid plaques in another AD mouse model, APP/PS1 transgenic mice (n = 24) and wildtype mice (n = 5) were assessed at the age of 7.5 months. YIAD002 was dissolved in PBS (0.5% methylcellulose) at two different concentrations (10 and 30 mg/kg/day) and administrated daily to APP/PS1 mice (n = 8 for each group) via oral gavage for 8 weeks. As a control, vehicle solutions were orally administrated to littermate APP/PS1 mice (n = 8) and wildtype mice (n = 5).
The Morris water maze was used to evaluate whether YIAD002 could improve cognitive function in APP/PS1 mice during the tenth week of administration. A circular stainless pool with a radius of 90 cm and height of 50 cm with water kept at 22±1°C. Nontoxic opaque white paint was used to hide a platform with a radius of 9 cm hidden 1 cm beneath the surface. The training phase consisted of 5 days, in which the mice were given 60 s to find the platform. On circumstances where a mouse could not reach the platform within 60 s, it was placed on the platform where it had to remain for 10 s. The probe test took place on the sixth day, in which the platform was removed and the mice swam freely for 60 s. Swimming trajectories were recorded and analyzed using SMART VIDEO TRACKING Software (Panlab, USA). To assess cognitive improvement in YIAD002-treated mice groups, latency to target (seconds) and the number of target crossings were compared to vehicle-treated APP/PS1 mice. After the probe trial, the mice were sacrificed and the collected brains were fixed in formalin.

[3] = Observation of adverse effects in the current studies
[4] = Plasma stability, rat; format: in vitro ADME; conditions: 10 μM, 37°C, vs 0 min
Procedure: To assess the plasma stability of YIAD002, […] rat plasma and incubated at 37°C for the following time points: 0, 30, and 120 min. At the end of incubation, acetonitrile with chlorpropamide was added to stop reactions. The solutions were centrifuged at 14,000 rpm at 4°C for 5 min and the supernatant was analyzed with LC-MS/MS. High performance liquid chromatography was carried out on a Kinetex C18 column (2.1 × 100 mm, 2.6 μm particle size, Phenomenex, USA). The composition of the mobile phase was 0.1% formic acid in water (A) and 0.1% formic acid in acetonitrile (B).

[5] = target: T1, CYP 2D6 (Homo sapiens, UniProt P10635); test: CYP450 inhibition assay, 2D6; format: in vitro ADME; conditions: YIAD002 10 μM, human liver microsomes; weak or no inhibition; read-out: CYP 2D6 inhibition, IC50 (inhibition criteria)
T1 construct: contained human liver microsomes (0.25 mg/ml); from tissue; host or cells: human liver microsomes
T1 sequence (P10635 whole entry): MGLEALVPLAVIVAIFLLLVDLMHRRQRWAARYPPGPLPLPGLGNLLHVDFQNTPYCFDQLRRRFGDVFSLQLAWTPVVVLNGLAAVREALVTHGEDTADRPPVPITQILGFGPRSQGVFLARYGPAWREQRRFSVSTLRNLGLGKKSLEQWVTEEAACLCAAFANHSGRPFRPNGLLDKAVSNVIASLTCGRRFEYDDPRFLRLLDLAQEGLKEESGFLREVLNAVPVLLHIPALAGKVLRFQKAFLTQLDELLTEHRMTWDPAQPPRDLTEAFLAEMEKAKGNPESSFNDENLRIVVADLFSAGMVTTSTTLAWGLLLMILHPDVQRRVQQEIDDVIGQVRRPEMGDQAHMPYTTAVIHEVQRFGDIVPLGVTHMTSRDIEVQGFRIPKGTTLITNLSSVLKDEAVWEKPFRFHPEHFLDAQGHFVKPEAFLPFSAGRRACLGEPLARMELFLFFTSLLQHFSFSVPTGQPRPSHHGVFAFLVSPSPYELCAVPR
Procedure: (§1) Incubation mixtures for Cytochrome P450s (CYPs) inhibition assay contained human liver microsomes (0.25 mg/ml), 0.1 M phosphate buffer (pH 7.4), 10 μM of YIAD002, and an enzyme substrate cocktail (phenacetin 50 μM, diclofenac 10 μM, S-mephenytoin 100 μM, dextromethorphan 5 μM, and midazolam 2.5 μM). The mixture was pre-incubated at 37°C for 5 min and 1 mM NAPDH was added to initiate reactions. After 15 min of incubation, acetonitrile with terfenadine was added to stop reactions and microsomal solutions were centrifuged at 14,000 rpm at 4°C for 5 min. For LC-MS/MS analysis, supernatants were injected on a Kinetex C18 column (2.1 × 100 mm, 2.6 μm particle size, Phenomenex, USA). The composition of the mobile phase was 0.1% formic acid in water (A) and 0.1% formic acid in acetonitrile (B).

[6] = target: T2, CYP 3A4 (Homo sapiens, UniProt P08684); test: CYP450 inhibition assay, 3A4; format: in vitro ADME; conditions: YIAD002 10 μM, human liver microsomes; weak or no inhibition; read-out: CYP 3A4 inhibition, IC50 (inhibition criteria)
T2 construct: contained human liver microsomes (0.25 mg/ml); from tissue; host or cells: human liver microsomes
T2 sequence (P08684 whole entry): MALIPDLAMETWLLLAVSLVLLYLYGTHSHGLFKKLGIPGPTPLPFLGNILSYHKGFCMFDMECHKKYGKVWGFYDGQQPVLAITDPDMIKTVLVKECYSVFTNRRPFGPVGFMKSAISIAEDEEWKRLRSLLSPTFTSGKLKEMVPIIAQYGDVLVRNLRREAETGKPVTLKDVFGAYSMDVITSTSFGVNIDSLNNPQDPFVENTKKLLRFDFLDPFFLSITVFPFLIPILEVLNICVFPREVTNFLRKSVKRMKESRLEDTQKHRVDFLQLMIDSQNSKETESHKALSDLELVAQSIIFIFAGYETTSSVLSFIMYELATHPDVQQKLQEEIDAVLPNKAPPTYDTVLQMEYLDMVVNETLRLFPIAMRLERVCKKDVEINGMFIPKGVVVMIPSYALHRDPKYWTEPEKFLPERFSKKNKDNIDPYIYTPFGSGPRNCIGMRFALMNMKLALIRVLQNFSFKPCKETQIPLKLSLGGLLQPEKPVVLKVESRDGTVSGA
Procedure: as §1

[7] = target: T3, CYP 2C19 (Homo sapiens, UniProt P33261); test: CYP450 inhibition assay, 2C19; format: in vitro ADME; conditions: YIAD002 10 μM, human liver microsomes; weak or no inhibition; read-out: CYP 2C19 inhibition, IC50 (inhibition criteria)
T3 construct: contained human liver microsomes (0.25 mg/ml); from tissue; host or cells: human liver microsomes
T3 sequence (P33261 whole entry): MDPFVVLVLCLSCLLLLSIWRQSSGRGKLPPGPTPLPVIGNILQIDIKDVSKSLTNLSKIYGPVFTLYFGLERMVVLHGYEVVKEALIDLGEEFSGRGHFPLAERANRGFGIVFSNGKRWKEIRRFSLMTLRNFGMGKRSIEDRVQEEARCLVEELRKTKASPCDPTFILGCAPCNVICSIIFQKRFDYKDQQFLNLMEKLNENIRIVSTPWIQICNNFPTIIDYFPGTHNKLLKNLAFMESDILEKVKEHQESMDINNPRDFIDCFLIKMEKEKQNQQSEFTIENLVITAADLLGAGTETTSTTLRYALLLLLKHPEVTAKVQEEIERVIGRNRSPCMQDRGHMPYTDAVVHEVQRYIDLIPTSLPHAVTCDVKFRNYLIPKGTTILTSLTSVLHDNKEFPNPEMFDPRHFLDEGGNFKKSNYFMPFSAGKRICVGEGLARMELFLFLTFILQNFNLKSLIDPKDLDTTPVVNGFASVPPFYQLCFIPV
Procedure: as §1

[8] = target: α-synuclein aggregates (Homo sapiens, UniProt P37840); test: ThT dissociation assay against α-synuclein aggregation; format: biochemical; conditions: α-synuclein 35 μM pre-aggregated 3 days, compound additional 3 days
Procedure: [picture] Figure S5. ThT dissocation assay against α-synuclein aggregation. Dissociative effects of YIAD001 and YIAD002 against α-synuclein aggregation were evaluated using ThT fluorescence. α-synuclein (35 μM) was pre-aggregated for 3 days. YIAD001 and YIAD002 were added to and co-incubated with pre-aggregated samples for an additional 3 days. Aggregation time for α-synuclein is indicated as ‘+’ for 3 days and ‘++’ for 6 days. All fluorescence intensities were normalized and statistically compared to α-synuclein-only 3 days (+) control (100%). One-way analysis of variance followed by Bonferroni’s post-hoc comparisons tests were performed in all statistical analyses (****P < 0.0001). Data are presented as mean ± SEM. Abbreviations: Aggr. = Aggregation, Cpd. = Compound.

Structure (SMILES): CCC(C)(C)c1ccc(OCC(O)CN2CCCC2)c(C(C)(C)CC)c1.Cl (centres unmarked) [YIAD002, 1-(3-(2,4-Di-tert-pentylphenoxy)-2-hydroxypropyl)pyrrolidin-1-ium chloride]
- Remaining compound in mouse microsomes [1]: 14.2%
- Escape latency after 5 days of training ([2]; 7.5-month-old APP/PS1 mice): significantly shortened
- Latency to target, probe trial ([2]; APP/PS1 mice): significantly shorter
- Target crossings, probe trial ([2]; APP/PS1 mice): increased target crossings
- Adverse effects of toxicity [3]: not observed
- Compound remaining in rat plasma ([4]; 30 min): 94.5%
- Compound remaining in rat plasma ([4]; 120 min): 87.7%
- IC50 [5]: > 10 µM
- IC50 [6]: > 10 µM
- IC50 [7]: > 10 µM
- Interaction with α-synuclein aggregates (ThT dissociation) [8]: did not interact with α-synuclein aggregates
